Reference: patent publication US20150374660A1, “Ascorbate Esters of Omega-3 Fatty Acids and Their Formulations and Uses” (JIVA PHARMA, INC., priority 2013, published 2015)

Assays:
[1] = system: cultured primary human myocytes; assay: fatty acid oxidation rates in cultured primary human myocytes (radiolabeled CO2 release); assay type: cell-based; conditions: 48 hr, n=6; for differences from control in fatty acid oxidation: ethanol control, 30, 100 and 300 micromolar; for promotion of fatty acid oxidation (complete oxidation, CO2): normal primary human myocytes, 30, 100 and 300 micromolar, radiolabeled oleic acid, compared to EPAEE
Text: FIG. 1 is a graph of the data obtained from biology tests described herein of EPA and DHA ascorbates on fatty acid oxidation rates in cultured on normal primary human myocytes. The vertical axis is the complete oxidation (nmol CO2/mg protein). The statistical variance is shown by the “T” at the top of each bar. The #1 bar (solid coral) is the ethanol as control; #2 bars (solid gray, from left to right are 30, 100 and 300 micromolar) of EPA; #3 bars (solid green, from left to right are 30, 100 and 300 micromolar) of EPAX; #4 bars (hash red and white, from left to right are 30, 100 and 300 micromolar) of DHAX; and #5 bars (solid red, from left to right are 30, 100 and 300 micromolar) of EPAEE.
Effect of EPA and DHA ascorbates on fatty acid oxidation rates in cultured primary human myocytes were determined and discussed below.
Cell-based multiwell assays for the detection of substrate accumulation and oxidation are described in literature (A. J. Wensaas, et al., J. of Lipid Research 48, 961-967 (2007)) for detecting the accumulation as well as the subsequent oxidation of ^14C labeled substrates in cultured cells. Accumulation is monitored in real time by an established scintillation proximity assay in which the scintillator is embedded in the plate base primarily detecting cell-associated radiolabel. This method was applied, and the effect of EPA and DHA ascorbates on fatty acid oxidation rates in cultured primary human myocytes was determined The compounds tested were EPA, EPAX (EPAX), DHAX (DHAX), and EPAEE.
Cultured human primary myocytes from normal (non-diabetic, non-obese) subjects
Cells treated with 30, 100 and 300 micromolar of each compound for 48 hr
Cells grown in the presence of radiolabeled oleic acid
Radiolabeled CO2 released during the incubation was measured.
Each compound was tested 6 times (n=6)

[2] = cited from earlier work

Row | SMILES | differences from control in fatty acid oxidation [1] | promotion of fatty acid oxidation (complete oxidation, CO2) [1] | solubility in aqueous ethanol ([2]; aqueous ethanol) | solubility in water ([2]; water)
1 | CC/C=C\C/C=C\C/C=C\C/C=C\C/C=C\C/C=C\CCC(=O)OC[C@H](O)[C@H]1OC(=O)C(O)=C1O [DHA ascorbate] | not statistically significant | to a lesser degree |  | 
2 | CC/C=C\C/C=C\C/C=C\C/C=C\C/C=C\CCCC(=O)OC[C@H](O)[C@H]1OC(=O)C(O)=C1O [EPA ascorbate] | not statistically significant | distinct trend |  | 
3 | CCCCCCCCCCCCCCCC(=O)OC[C@H](O)[C@H]1OC(=O)C(O)=C1O [Palmitoyl ascorbate, 6-O-palmitoyl L-ascorbate] |  |  | soluble | sparingly soluble
